Values quoted from earlier work, collected in patent EP4379726A1, “THE METHOD FOR PREDICTING THE OCCURRENCE OF THE OFF-TARGET TOXICITY CAUSED BY SIMILARITY BETWEEN A TARGET EPITOPE AND PUTATIVE OFF-TARGET EPITOPES” (Ardigen S.A., priority 2022, dated 2024).

System: AFP 158 -Specific TCR Engineered T Cells
Conditions: in vitro X-scan, engineered T cells against AFP 158 (FMNKFIYEI)

In the case of ILNKFIPDI, the “activation of the T-cell” value is listed as “could activate the T-cell”.
